Tests used:
JJ5 Breast Cancer cells [1] = details: in vitro
Experimental: The EGF-^111In-labeled transferrin (0.25-80 ng) was incubated with 1.5×10^6 cells/dish JJ5 Breast Cancer (prepared from BCBM JJ5) cells in 1 mL of 0.1% human serum albumin in 35 mm multiwell culture dishes at 37° C. for 30 minutes. The cells were transferred to a centrifuge tube and centrifuged. The cell pellet was separated from the supernatant and counted in a g-scintillation counter to determine bound (B) and free (F) radioactivity. Non-specific binding was determined by conducting the assay in 100 nM hEGF. […] Internalized fraction was measured by determining the proportion of radioactivity which could not be displaced from the cell surface by 100 nM hEGF. Cell-associated binding (surface-binding and intracellular accumulation) was expressed as a percentage of medium radioactivity bound per mg of cell study protein.

JJ5 Breast Cancer cells [2] = test: Growth inhibition assay of EGF-111In-labeled transferrin composition against JJ5 breast cancer cells; assay type: cell-based, human; details: 3.5 pCi/cell, cultured 4 days
Experimental: JJ5 breast cancer cells (prepared from BCBM JJ5) expressing approximately 10^6 epidermal growth factor receptors/cell were incubated with EGF-^111In-labeled transferrin composition, unlabeled hEGF or ^111In-oxine, centrifuged to remove free ligand, then assayed and seeded ([…]) into 35 mm culture dishes. Growth medium was added and the cells were cultured at 37° C./5% CO^2 for 4 days. The cells were then recovered by trypsinization and counted in a hemocytometer. Control dishes contained cells cultured in growth medium containing ^111In-DTPA or growth medium alone.

| Molecule | retained by the breast cancer cells (JJ5 Breast Cancer cells [1]; 37° C.) | 111In radioactivity lost from the cells (JJ5 Breast Cancer cells [1]; over a 24 hour period at 37° C.) [%] | growth inhibition of the JJ5 cells (JJ5 Breast Cancer cells [2]) [%] |
| --- | --- | --- | --- |
| EGF-^111In-labeled transferrin composition: human EGF linked via PEG3400-biotin or peptide linker to streptavidin-transferrin, transferrin labeled with 111In | at least 24 hours | < 8 | – |
| [In+3].[O-]c1cccc2cccnc12.[O-]c1cccc2cccnc12.[O-]c1cccc2cccnc12 [^111In-oxine] | – | – | 91 |
